Source: PMC9144902, “Metal(II) Complexes of the Fluoroquinolone Fleroxacin: Synthesis, Characterization and Biological Profile” (Pharmaceutics, 2022)
Read-outs that look alike come from different tables or passages of the source.

Key:
[1] = system: Xanthomonas campestris ATCC 1395; assay: Antimicrobial activity, MIC determination; type: cell-based
Method: (§1) The in vitro antimicrobial activity of the compounds was evaluated by determining the minimum inhibitory concentration (MIC) against the Gram-positive microorganisms Staphylococcus aureus ATCC 6538 (S. aureus) and Bacillus subtilis ATCC 6633 (B. subtilis) and the Gram-negative microorganism Xanthomonas campestris ATCC 1395 (X. campestris). The affinity of the compounds for bovine serum albumin (BSA) and human serum albumin (HSA) was studied by fluorescence emission spectroscopy, and the corresponding binding constants were determined. Furthermore, the interaction of the compounds with calf-thymus DNA (CT DNA) was investigated to determine the possible mode of interaction by the following methods: (i) UV–vis spectroscopy (where the DNA-binding constants of the complexes (Kb) were also determined), (ii) DNA-viscosity measurements, (iii) cyclic voltammetry and (iv) competitive DNA-binding studies with the classic intercalator ethidium bromide (EB) performed by fluorescence emission spectroscopy.
(§2) Three bacterial strains, one Gram(−) (X. campestris) and two Gram(+) (S. aureus and B. subtilis), were used in order to test the antimicrobial activity of the compounds.
(§3) The antimicrobial activity of the compounds was evaluated b y determining their respective MIC values towards one Gram–( –) (Xanthomonas campestris ATCC 1395 (X. campestris)) and two Gram–(+) (Staphylococcus aureus ATCC 6538 (S. aureus) and Bacillus subtilis ATCC 6633 (B. subtilis)) bacterial species. Cultures of these microbial strains were grown on a rich selective agar medium and stored at 4°C. The selective media used were Nutrient Agar or Broth for B. subtilis and S. aureus, and Yeast Mold Agar or Broth for X. campestris . Cells picked from the surface of the stored cultures were used to initiate liquid pre–cultures of the same selective medium at an initial turbidity of roughl y 1 McFarland unit. Pre–cultures were incubated for 24 h in a rotar y sh aking incubator and subsequently the y were used to inoculate the test cultures used for the determination of MIC at an initial turbidity of 0.5 McFarland units. The test cultures consisted of Mueller–Hinton broth (Deben Diagnostics Ltd) containing different concentrations of the compounds. Different concentrations were achieved as follows: the compounds were freshly dissolved in DMSO to a concentration of 1 mg/mL and they were diluted with DMSO, using the method of progressive double dilution. Therefore, working solutions with decreasing concentrations of the compounds under investigation were achieved. The working solutions were subsequently diluted to the final desired concentration b y addition to the growth medium at a proportion of 2:98. MIC values were determined as the lowest concentrations of the tested compounds that inhibited visible growth of each respective organism after a 24–h incubation [ S1]. Bacterial growth was determined b y measuring the turbidit y of appropriatel y diluted cultures at 600 nm with reference to equall y diluted sterile growth medium and the inhibition achieved was calculated b y comparing the turbidit y of each culture to the average of the turbidit y of three non–inhibited cultures. All test cultures were grown in triplicates and for the determination of MIC, growth had to be inhibited in at least two cultures of the triplicate. In cubation temperatur e at all stages was 37°C ex cept for X. campestris t h at was cultivated at 28°C [S2]. […]
(§4) The fluorescence spectra of the compounds were recorded under the same experimental conditions and presented a low–intensity emission band in the region 405–410 nm .

[2] = system: Staphylococcus aureus ATCC 6538; assay: Antimicrobial activity, MIC determination; type: cell-based
Method: as §1, §2, §3, §4

[3] = system: Bacillus subtilis ATCC 6633; assay: Antimicrobial activity, MIC determination; type: cell-based
Method: as §1, §2, §3, §4

EB–DNA adduct (CT DNA) = assay: Competitive study with EB (EB–DNA fluorescence quenching); type: binding, calf; details: for Ksv, Stern–Volmer constant: EB–DNA adduct; for ΔI/Io, percentage of EB–DNA fluorescence quenching: [EB] = 20 μM, [DNA] = 26 μM, λexc 540 nm, λem 592 nm; for EB–DNA relative fluorescence emission intensity, % of the initial (I/Io): λemission = 592 nm, final value (up to), Figure S14; for kq, EB–DNA quenching constant: τo = 23 ns
Method: Ethidium bromide is a typical marker of intercalation because it can intercalate between adjacent DNA bases with its planar phenanthridine ring.
The fluorescence emission spectra of the EB–DNA adduct ([EB] = 20 μM, [DNA] = 26 μM) in the absence and presence of the compounds were recorded at increasing amounts of the respective compounds. […] As a conclusion, an intercalative interaction of the complexes with CT DNA can be proposed.
The values of the Stern–Volmer constants (Ksv) for the compounds were calculated using the linear Stern–Volmer equation (Equation (S2)) and were of the order of 10^5 M^−1 (Table 8), indicating tight binding of the complexes with DNA [61]. The Ksv values for the complexes are in the range found for a number of metal(II)–quinolone complexes, and complex 12 presents the highest Ksv value (Ksv = 7.25(±0.30) × 10^5 M^−1) among the compounds studied. In addition, the EB–DNA quenching constants (kq) for the compounds were calculated with Equation (S3), assuming τo = 23 ns as the fluorescence lifetime. The values of kq (Table 8) are much higher than the value of 10^10 M^−1s^−1, indicating a static mechanism of EB–DNA fluorescence quenching induced by the compounds, which can result from the formation of a new adduct apparently consisting of each complex and DNA [61].
In order to determine and confirm the DNA–binding mode of the compounds, a competitive study with EB as an intercalating marker is performed b y fluorescence emission spectroscopy.
Therefo re, the E B–displacing abilit y of the compounds from its EB –DN A conjugate was ex amined.
The DNA–EB adduct was prepared b y addition of 20 μM EB and 26 μM CT DNA in buffer solution (150 mM NaCl and 15 mM trisodium citrate at pH 7.0). The potential intercalation of the compounds between the DNA–bases was studied by the addition of a certain amount of the compound solution into the EB–DNA adduct solution. The influence of the compounds on the EB – DNA solution was monitored through the changes of the fluorescence emission spectra at excitation […]
wavelen gth (λex ) at 540 nm [S3]. […]
room temperature in solution or in the presence of DNA, under the same experimental conditions (λex = 540 nm). Bearing t hat in mind, the observed quenching of the EB–DNA solution is evidentl y associated to the displacement of EB from its EB–DNA adduct.
The quenching effici ency (KSV) for each compound was assessed according to the Stern – Volmer equation: Io =1+ k τ [Q] = 1+ K [Q], (eq. S2) [S3] where I0 and I = the fluorescence […]
emission intensities of EB–DNA in the absence and presence of the quencher, respectivel y, [Q] = the concentration of the quencher (i.e. compounds). KSV is obtained from t he Stern–Volmer plots b y the slope of the diagram I0/ I versus [Q]. Taking τ0 = 23 ns as the fluorescence lifetime of the EB– DNA s ystem [S5], the EB –DNA quenching constants (k q) of the compounds can be determined accordin g to eq.S3: K SV = kqτo . […]
[S2] Irgi, E.P.; Geromichalos, G.D.; Balala, S.; Kljun, J.; Kalogiannis, S.; Papadopoulos, A.; Turel, I.; Psomas, G. Cobalt(II) complexes with quinolone antimicrobial drug oxolinic acid: […]
[ S 5] Heller, D.P.; Greenstock, C.L. Fluorescence lifetime analysis of DNA intercalated ethidium bromide and quenching by free d ye. Biophys. Chem . 1994, 50, 305–312.

[4] = biological target: T1, bovine serum albumin (BSA) (Bos taurus, UniProt P02769); assay: Albumin binding by tryptophan fluorescence emission quenching; details: for kq(BSA), BSA-quenching constant / K(BSA), BSA-binding constant: BSA 3 μM; for kq(BSA), BSA-quenching constant: buffer pH 7.0, λexc 295 nm, Stern–Volmer, τ0 = 10^–8 s; for BSA fluorescence, % of the initial fluorescence intensity (I/Io): λem,max = 342 nm, final value of titration (Figure S11); for K(BSA), BSA-binding constant: buffer pH 7.0, Scatchard equation
T1 construct: purchased
Method: (§5) Serum albumins (Sas) are the most abundant serum proteins and play a role in the circulatory system, primarily in the transport of drugs and other bioactive small molecules through the bloodstream.
(§6) The SA-quenching constants (kq) for the compounds (Table 5) were calculated with the Stern–Volmer quenching equation (Equations (S2) and (S3)).
(§7) Albumin-binding constants (K) were calculated using the Scatchard equation (Equation (S4)). […]
(§8) S2. Interaction with serum albumins
(§9) The albumin–binding study for the compounds was carried out b y fluorescence emission

[5] = biological target: T2, human serum albumin (HSA) (Homo sapiens, UniProt P02768); assay: as above; details: for kq(HSA), HSA-quenching constant / K(HSA), HSA-binding constant: HSA 3 μM; for kq(HSA), HSA-quenching constant: buffer pH 7.0, λexc 295 nm, Stern–Volmer, τ0 = 10^–8 s; for HSA fluorescence, % of the initial fluorescence intensity (I/Io): λem,max = 351 nm, final value of titration (Figure S10); for K(HSA), HSA-binding constant: buffer pH 7.0, Scatchard equation
T2 construct: purchased
Method: as §5, §6, §7, §8, §9

[6] = X. campestris, 24-h incubation, 28°C
[7] = S. aureus, 24-h incubation, 37°C
[8] = B. subtilis, 24-h incubation, 37°C

T1 sequence (P02769 25-607): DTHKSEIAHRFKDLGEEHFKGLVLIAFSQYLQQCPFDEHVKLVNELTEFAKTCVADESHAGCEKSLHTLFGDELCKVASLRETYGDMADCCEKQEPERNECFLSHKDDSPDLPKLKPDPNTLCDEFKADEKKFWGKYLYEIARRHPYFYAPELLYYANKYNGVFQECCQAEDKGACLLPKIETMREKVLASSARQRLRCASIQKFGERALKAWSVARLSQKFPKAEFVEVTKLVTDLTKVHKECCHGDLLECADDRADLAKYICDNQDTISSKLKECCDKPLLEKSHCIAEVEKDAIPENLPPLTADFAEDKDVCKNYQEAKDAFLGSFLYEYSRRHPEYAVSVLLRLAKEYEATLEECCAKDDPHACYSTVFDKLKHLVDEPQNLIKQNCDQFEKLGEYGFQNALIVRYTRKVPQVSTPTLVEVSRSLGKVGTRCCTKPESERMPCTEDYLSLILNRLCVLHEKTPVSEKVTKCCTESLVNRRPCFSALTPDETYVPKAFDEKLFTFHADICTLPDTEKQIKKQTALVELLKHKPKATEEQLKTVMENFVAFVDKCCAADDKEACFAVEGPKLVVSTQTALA
T2 sequence (P02768 25-609): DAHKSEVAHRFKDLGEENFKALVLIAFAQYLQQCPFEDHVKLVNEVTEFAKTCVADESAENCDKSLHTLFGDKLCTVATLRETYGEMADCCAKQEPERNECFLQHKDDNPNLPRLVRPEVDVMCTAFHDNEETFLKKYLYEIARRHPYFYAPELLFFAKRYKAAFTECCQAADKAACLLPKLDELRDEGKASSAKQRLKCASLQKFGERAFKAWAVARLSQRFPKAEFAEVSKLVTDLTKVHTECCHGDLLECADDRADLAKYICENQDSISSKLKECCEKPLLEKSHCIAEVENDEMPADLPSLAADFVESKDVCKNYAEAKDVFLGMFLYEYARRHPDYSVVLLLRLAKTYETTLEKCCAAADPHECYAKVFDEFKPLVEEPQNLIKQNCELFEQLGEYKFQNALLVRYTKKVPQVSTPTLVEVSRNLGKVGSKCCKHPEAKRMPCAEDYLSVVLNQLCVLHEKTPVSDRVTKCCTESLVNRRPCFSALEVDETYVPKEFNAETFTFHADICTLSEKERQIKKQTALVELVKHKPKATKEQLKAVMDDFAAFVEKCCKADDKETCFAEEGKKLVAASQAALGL

SMILES	Ksv, Stern–Volmer constant (EB–DNA adduct (CT DNA))	ΔI/Io, percentage of EB–DNA fluorescence quenching (EB–DNA adduct (CT DNA)) [%]	EB–DNA relative fluorescence emission intensity, % of the initial (I/Io) (EB–DNA adduct (CT DNA)) [%]	kq, EB–DNA quenching constant (EB–DNA adduct (CT DNA))	kq(BSA), BSA-quenching constant [4]	BSA fluorescence, % of the initial fluorescence intensity (I/Io) [4] [%]	kq(HSA), HSA-quenching constant [5]	HSA fluorescence, % of the initial fluorescence intensity (I/Io) [5] [%]	MIC [1, 6] [µg/mL]	MIC (values in parentheses) [1, 6] [µM]	MIC [2, 7] [µg/mL]	MIC (values in parentheses) [2, 7] [µM]	MIC [3, 8] [µg/mL]	MIC (values in parentheses) [3, 8] [µM]	K(BSA), BSA-binding constant [4]	K(HSA), HSA-binding constant [5]	further results
CN1CCN(c2c(F)cc3c(=O)c(C(=O)O)cn(CCF)c3c2F)CC1 [Fleroxacin, 6,8-difluoro-1-(2–fluoroethyl)-7-(4-methylpiperazin-1-yl)-4-oxoquinoline-3-carboxylic acid]	4.64(±0.14) × 10^5 M^–1	65.8	34.2	2.02(±0.06) × 10^13 M^−1s^−1	6.19(±0.23) × 10^12 M^−1s^−1	47.5	2.69(±0.11) × 10^12 M^−1s^−1	66.5									MIC ([1]; Xanthomonas campestris, ATCC1395, 24 h): 8 µg/mL; MIC ([1]; Xanthomonas campestris, ATCC1395, 24 h, read-out: MIC (values in parentheses)): 21.7 µM; MIC ([2]; Staphylococcus aureus, ATCC6538, 24 h): 4 µg/mL; MIC ([2]; Staphylococcus aureus, ATCC6538, 24 h, read-out: MIC (values in parentheses)): 10.8 µM; MIC ([3]; Bacillus subtilis, ATCC6633, 24 h): 4 µg/mL; MIC ([3]; Bacillus subtilis, ATCC6633, 24 h, read-out: MIC (values in parentheses)): 10.8 µM; Kd [4]: 30.5 µM; Kd [5]: 15.2 µM
CN1CCN(c2c(F)cc3c(=O)c(C(=O)[O-])cn(CCF)c3c2F)CC1.CN1CCN(c2c(F)cc3c(=O)c(C(=O)[O-])cn(CCF)c3c2F)CC1.CO.CO.[Zn+2] [complex 3, [Zn(flrx)2(MeOH)2]]	6.07(±0.17) × 10^5 M^–1	85.9	14.1	2.64(±0.07) × 10^13 M^−1s^−1	4.55(±0.21) × 10^13 M^−1s^−1	10.8	2.26(±0.10) × 10^13 M^−1s^−1	19.8	32	36.8	8	9.2	8	9.2	1.86(±0.08) × 10^5 M^−1	6.15(±0.25) × 10^4 M^−1	
CN1CCN(c2c(F)cc3c(=O)c(C(=O)[O-])cn(CCF)c3c2F)CC1.CN1CCN(c2c(F)cc3c(=O)c(C(=O)[O-])cn(CCF)c3c2F)CC1.[Zn+2].c1ccc(-c2ccccn2)nc1 [complex 12, [Zn(flrx)2(bipy)]]	7.25(±0.30) × 10^5 M^–1	88.6	11.4	3.15(±0.13) × 10^13 M^−1s^−1	1.74(±0.08) × 10^13 M^−1s^−1	14.1	1.24(±0.04) × 10^13 M^−1s^−1	25.9	16	16.7	8	8.3	8	8.3	7.89(±0.33) × 10^4 M^−1	1.04(±0.06) × 10^5 M^−1	
CN1CCN(c2c(F)cc3c(=O)c(C(=O)[O-])cn(CCF)c3c2F)CC1.CN1CCN(c2c(F)cc3c(=O)c(C(=O)[O-])cn(CCF)c3c2F)CC1.[Zn+2].c1ccc(Nc2ccccn2)nc1 [complex 13, [Zn(flrx)2(bipyam)]]	6.51(±0.19) × 10^5 M^–1	81.8	18.2	2.84(±0.08) × 10^13 M^−1s^−1	3.37(±0.14) × 10^13 M^−1s^−1	14.6	1.23(±0.05) × 10^13 M^−1s^−1	27.9	16	16.4	8	8.2	4	4.1	3.60(±0.14) × 10^4 M^−1	3.69(±0.14) × 10^4 M^−1	
